From patent US11352354B2, “Substituted penta-fused hexa-heterocyclic compounds, preparation method therefor, drug combination and use thereof” (Xiamen University, priority 2017, dated 2022)

System: MDA-MB-231 cells
Assay: Vacuolation of MDA-MB-231 cells caused by inhibition of compounds on PIKfyve (microscopy)
Type: cell-based
Details: MDA-MB-231 cells
Source text: I. Determination of Vacuolation of MDA-MB-231 Cells Caused by Inhibition of Compounds on PIKfyve
When the activity of pikfyve kinase is inhibited, vacuoles will be produced in cytoplasm. By observing the number of vacuoles under a microscope, the ability of compounds to inhibit the activity of pikfyve kinase can be known.
1. Cell plating: cells in logarithmic growth phase were made into a single cell suspension, counted with a cell counter and diluted to a cell concentration of about 2×10^5/mL. Then, the cells were inoculated into a 12-well plate, and cultured in a 37° C., 5% CO2 incubator.
3. Vacuolation test: after 24 and 48 hours of culture, photos were taken under an […] to observe the degree of vacuolation.
(In the table, “+” represents the degree of vacuolation; more “+” indicates more obvious vacuolation; “−” represents no vacuolation)

Row | Structure (SMILES) | degree of vacuolation, 1 μM, 24 h | degree of vacuolation, 1 μM, 48 h | degree of vacuolation, 10 μM, 24 h | degree of vacuolation, 10 μM, 48 h
1 | Cc1ccc(C(=O)Nc2cc(C(F)(F)F)cc(C(F)(F)F)c2)cc1Nc1cc(-c2cccnc2)nc2[nH]ccc12 [I-a-31] | − | − | − | −
2 | Cc1ccc(C(=O)Nc2cccc(OC(F)(F)F)c2)cc1Nc1nc(-c2cccnc2)nc2c1ncn2C [IV-b-11] | + | + |  | +
3 | Cc1ccc(C(=O)Nc2ccc(CN3CCN(C)CC3)c(C(F)(F)F)c2)cc1Nc1cc(-c2cccnc2)nc2[nH]ccc12 [I-a-24] | − | − | − | −
4 | CN1CCN(Cc2cc(NC(=O)c3cccc(Nc4cc(-c5cccnc5)nc5[nH]ccc45)c3)cc(C(F)(F)F)c2)CC1 [I-a-26] | − | − | − | −
5 | Cc1ccc(NC(=O)c2ccc(CN3CCOCC3)c(C(F)(F)F)c2)cc1Nc1nc(-c2cccnc2)cn2c(Br)cnc12 [VI-b-6] | − | − | − | −
6 | Cc1ccc(C(=O)Nc2ccc(CN3CCN(C)CC3)c(C(F)(F)F)c2)cc1Nc1nc(-c2ccncc2)nc2cc[nH]c12 [V-a-10] | ++ | ++ | − | −
7 | Cc1ccc(C(=O)Nc2cccc(C(F)(F)F)c2)cc1Nc1nc(-c2ccccc2)nc2c1cnn2C [III-b-2] | − | − | − | −
8 | Cc1ccc(C(=O)Nc2cccc(OC(F)(F)F)c2)cc1Nc1cc(-c2cccnc2)nc2[nH]ccc12 [I-a-33] | + | ++ | + | ++
9 | Cc1ccc(NC(=O)c2cccc(C(F)(F)F)c2)cc1Nc1nc(-c2ccncc2)nc2ccn(C)c12 [V-b-2] | − | − | ++ | ++
10 | O=C(Nc1cccc(C(F)(F)F)c1)c1cccc(Nc2nc(-c3cccnc3)nc3cc[nH]c23)c1 [V-a-1] | − | − | + | +
11 | COc1cccc(NC(=O)c2ccc(C)c(Nc3cc(-c4cccnc4)nc4[nH]ccc34)c2)c1 [I-a-32] | + | ++ | + | ++
12 | COc1ccc(Br)cc1NC(=O)Nc1cccc(-c2nc(NCc3cccnc3)c3c(ccn3C)n2)c1 [V-b-29] | + | − | − | −
13 | Cc1cccc(NC(=O)c2ccc(C)c(Nc3cc(-c4cccnc4)nc4[nH]ccc34)c2)c1 [I-a-34] | + | ++ | + | ++
14 | Cc1cc(NC(=O)c2ccc(C)c(Nc3cc(-c4cccnc4)nc4[nH]ccc34)c2)n(C)n1 [I-a-45] | − | + | + | +
15 | Cc1ccc(C(=O)Nc2ccc(CN3CCN(C)CC3)c(C(F)(F)F)c2)cc1Nc1cc(-c2cccnc2)nc2c1ccn2C [I-b-5] | − | − | + | +
16 | COc1ccc(Br)cc1NC(=S)Nc1cccc(-c2nc(NCc3cccnc3)c3c(ccn3C)n2)c1 [V-b-30] | − | − | + | +
17 | Cc1cn(-c2cc(NC(=O)c3ccc(C)c(Nc4nc(-c5ccncc5)nc5cc[nH]c45)c3)cc(C(F)(F)F)c2)cn1 [V-a-8] | + | + | ++ | ++
18 | O=C(Nc1cccc(C(F)(F)F)c1)c1cccc(Nc2cc(-c3cccnc3)nc3[nH]ccc23)c1 [I-a-30] | + | + | + | +
19 | Cc1ccc(C(=O)Nc2ccc(CN3CCN(C)CC3)c(C(F)(F)F)c2)cc1Nc1nc(-c2cccnc2)nc2ccn(C)c12 [V-b-7] | + | + | − | −

Row | Structure (SMILES) | degree of vacuolation, 1 μM, 24 h | degree of vacuolation, 1 μM, 48 h | degree of vacuolation, 10 μM, 24 h | degree of vacuolation, 10 μM, 48 h
20 | Cc1ccc(C(=O)Nc2ccc(CN3CCN(C)CC3)c(C(F)(F)F)c2)cc1Nc1nc(-c2ccncc2)nc2[nH]cnc12 [IV-a-5] | + | − | + | −
21 | Cc1ccc(C(=O)Nc2ccc(CN3CCN(C)CC3)c(C(F)(F)F)c2)cc1Nc1nc(-c2ccncc2)nc2c1ncn2C [IV-b-10] |  | − |  | −
22 | Cc1ccc(C(=O)Nc2cccc(OC(F)(F)F)c2)cc1Nc1nc(-c2ccncc2)nc2[nH]cnc12 [IV-a-7] | − | − | + | ++
23 | Cc1ccc(C(=O)Nc2ccc(CN3CCN(C)CC3)c(C(F)(F)F)c2)cc1Nc1nc(-c2cccnc2)nc2c1ncn2C [IV-b-9] |  | − |  | −
24 | Cc1ccc(NC(=O)c2cccc(C(F)(F)F)c2)cc1Nc1cc(-c2ccncc2)nc2[nH]ccc12 [I-a-10] | − | − | ++ | ++
25 | Cc1ccc(C(=O)Nc2ccc(CN3CCN(C)CC3)c(C(F)(F)F)c2)cc1Nc1nc(-c2ccncc2)cn2ccnc12 [VI-a-8] |  | − |  | −
26 | Cc1ccc(C(=O)Nc2cccc(Cl)c2)cc1Nc1cc(-c2cccnc2)nc2[nH]ccc12 [I-a-35] | + | ++ | + | ++
27 | Cc1cc(NC(=O)c2ccccc2N)ccc1Nc1nc(-c2cccnc2)c2[nH]ccc2n1 [V-c-25] | − | − | − | −
28 | Cc1ccc(C(=O)Nc2cccc(C(F)(F)F)c2)cc1Nc1cc(-c2ccncc2)nc2[nH]ccc12 [I-a-21] | − | − | − | −
29 | Nc1ccc(NC(=O)c2cccc(Nc3nc(-c4cccnc4)c4[nH]ccc4n3)c2)cc1 [V-c-3] | + | + | ++ | ++
30 | Cc1cn(-c2cc(NC(=O)c3ccc(C)c(Nc4nc(-c5cccnc5)nc5cc[nH]c45)c3)cc(C(F)(F)F)c2)cn1 [V-a-7] | − | − | + | +
31 | Cc1ccc(C(=O)Nc2cccc(OC(F)(F)F)c2)cc1Nc1nc(-c2cccnc2)cn2c(Br)cnc12 [VI-b-4] | − | − | + | +
32 | Cc1ccc(NC(=O)c2cccc(C(F)(F)F)c2)cc1Nc1nc(-c2cccnc2)nc2cc[nH]c12 [V-a-3] | ++ | ++ | + | +
33 | Cc1ccc(NC(=S)Nc2cccc(C(F)(F)F)c2)cc1Nc1cc(-c2cccnc2)nc2[nH]ccc12 [I-a-40] | + | + | + | +
34 | Cc1ccc(C(=O)Nc2cccc(C(F)(F)F)c2)cc1Nc1nc(-c2cccnc2)nc2ccn(C)c12 [V-b-3] | + | + | ++ | ++
35 | CN1CCN(Cc2cc(NC(=O)c3cccc(Nc4cc(-c5ccncc5)nc5[nH]ccc45)c3)cc(C(F)(F)F)c2)CC1 [I-a-27] | + | − | + | −
36 | Cc1cc(NS(=O)(=O)c2ccccc2)ccc1Nc1nc(-c2cccnc2)c2[nH]ccc2n1 [V-c-35] | − | − | + | +
37 | Cc1ccc(NC(=O)c2cccc(C(F)(F)F)c2)cc1Nc1nc(-c2ccncc2)nc2cc[nH]c12 [V-a-4] | − | − | − | −
